Reference: US20100094009A1, “NOVEL CRYSTALLINE COMPOUND USEFUL AS GLK ACTIVATOR” (priority 2006, published 2010)

Experiments:
Assay type in all cases: physicochemical
[1] = Conversion of the crystalline form in aqueous media
[2] = Competitive slurries of Form A and Form B in a range of solvents
From the text: Form B also has a much higher melting endotherm.

[3] = Solubility profile of solid forms

Compound	conversion to other solid forms in aqueous media [1]	relative stability of crystalline forms in competitive slurries [2]	solubility profile compared with Form A [3]
CC(C)Oc1cc(Oc2cnc(C(=O)N3CCC3)cn2)cc(C(=O)Nc2cc[nH]n2)c1 [Form A, 3-{[5-(Azetidin-1-ylcarbonyl)pyrazin-2-yl]oxy}-5-[(1-methylethyl)oxy]-N-1H-pyrazol-3-ylbenzamide]	convert to the amorphous form	–	–
CC(C)Oc1cc(Oc2cnc(C(=O)N3CCC3)cn2)cc(C(=O)Nc2cc[nH]n2)c1 [Form A′, 3-{[5-(azetidin-1-ylcarbonyl)pyrazin-2-yl]oxy}-5-[(1-methylethyl)oxy]-N-1H-pyrazol-3-ylbenzamide]	convert to the amorphous form	–	–
CC(C)Oc1cc(Oc2cnc(C(=O)N3CCC3)cn2)cc(C(=O)Nc2cc[nH]n2)c1 [Form B, 3-{[5-(azetidin-1-ylcarbonyl)pyrazin-2-yl]oxy}-5-[(1-methylethyl)oxy]-N-1H-pyrazol-3-ylbenzamide]	does not significantly convert to other forms	most stable form	–
CC(C)Oc1cc(Oc2cnc(C(=O)N3CCC3)cn2)cc(C(=O)Nc2cc[nH]n2)c1 [amorphous form, 3-{[5-(azetidin-1-ylcarbonyl)pyrazin-2-yl]oxy}-5-[(1-methylethyl)oxy]-N-1H-pyrazol-3-ylbenzamide]	–	–	different solubility profile
